In paper PMC8343220, “The selectivity of α‐adrenoceptor agonists for the human α1A, α1B, and α1D‐adrenoceptors” (Pharmacology Research & Perspectives, 2021):
Each block holds one molecule with its values, some of them ahead of it.

What was measured:
[1] = tested on: parental CHO cell line without any transfected receptors; assay: ERK1/2‐phosphorylation, parent CHO cells without transfected receptors; assay type: cell-based, Chinese hamster
human α1B‐adrenoceptor [2] = target: T1, human α1B‐adrenoceptor (Homo sapiens, UniProt P35368); assay: ^3H‐cAMP accumulation in the presence of 10 μM forskolin, CHO‐α1B cells; assay type: cell-based; conditions: CHO‐α1B cells; in presence of forskolin
T1 construct: expressed in transfected cells; host or cells: CHO-K1
T1 sequence (P35368 1-520): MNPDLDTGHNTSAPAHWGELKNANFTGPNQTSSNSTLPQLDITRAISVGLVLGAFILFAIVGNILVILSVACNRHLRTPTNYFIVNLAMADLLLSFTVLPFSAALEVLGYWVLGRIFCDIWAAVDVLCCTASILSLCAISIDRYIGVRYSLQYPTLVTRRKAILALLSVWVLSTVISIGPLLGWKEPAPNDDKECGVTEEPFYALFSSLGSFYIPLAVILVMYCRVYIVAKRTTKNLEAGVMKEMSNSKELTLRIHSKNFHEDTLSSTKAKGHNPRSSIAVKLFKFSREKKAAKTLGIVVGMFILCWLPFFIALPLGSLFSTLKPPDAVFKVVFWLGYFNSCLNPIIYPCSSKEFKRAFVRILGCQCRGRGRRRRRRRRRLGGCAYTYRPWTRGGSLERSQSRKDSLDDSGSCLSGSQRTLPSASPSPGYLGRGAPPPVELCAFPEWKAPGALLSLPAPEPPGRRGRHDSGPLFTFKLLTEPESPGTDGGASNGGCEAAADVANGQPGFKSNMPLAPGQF

[3] = target: T2, human α1D‐adrenoceptor (full length) (Homo sapiens, UniProt P25100); assay: ^3H‐cAMP accumulation, CHO‐α1D cells; assay type: cell-based; conditions: cAMP accumulation without forskolin
T2 construct: human α1D‐adrenoceptor (full length) were used; expressed in transfected cells; host or cells: CHO-K1
T2 sequence (P25100 1-572): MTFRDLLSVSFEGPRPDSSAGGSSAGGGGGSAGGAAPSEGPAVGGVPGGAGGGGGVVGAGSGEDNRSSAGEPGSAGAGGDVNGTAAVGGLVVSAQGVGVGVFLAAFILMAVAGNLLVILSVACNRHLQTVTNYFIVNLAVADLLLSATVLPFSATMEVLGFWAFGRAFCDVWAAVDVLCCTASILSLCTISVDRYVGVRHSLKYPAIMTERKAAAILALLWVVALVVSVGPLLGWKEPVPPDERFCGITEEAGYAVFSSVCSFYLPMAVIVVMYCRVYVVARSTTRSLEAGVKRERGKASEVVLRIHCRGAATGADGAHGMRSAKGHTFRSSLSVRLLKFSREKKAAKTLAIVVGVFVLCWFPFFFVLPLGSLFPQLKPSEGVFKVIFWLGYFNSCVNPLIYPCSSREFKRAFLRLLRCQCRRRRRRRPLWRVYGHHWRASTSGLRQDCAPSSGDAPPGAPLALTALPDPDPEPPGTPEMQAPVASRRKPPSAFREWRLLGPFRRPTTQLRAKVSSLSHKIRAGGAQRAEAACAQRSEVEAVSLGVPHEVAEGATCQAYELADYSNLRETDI

human α1A‐adrenoceptor [4] = target: T3, human α1A‐adrenoceptor (Homo sapiens, UniProt P35348); assay: Intracellular free calcium mobilization, CHO‐α1A cells; assay type: cell-based; conditions: CHO‐α1A cells; for Intracellular calcium release % ionomycin: maximal response as % of 10 µM ionomycin
T3 construct: expressed in transfected cells; host or cells: CHO-K1
T3 sequence (P35348 1-466): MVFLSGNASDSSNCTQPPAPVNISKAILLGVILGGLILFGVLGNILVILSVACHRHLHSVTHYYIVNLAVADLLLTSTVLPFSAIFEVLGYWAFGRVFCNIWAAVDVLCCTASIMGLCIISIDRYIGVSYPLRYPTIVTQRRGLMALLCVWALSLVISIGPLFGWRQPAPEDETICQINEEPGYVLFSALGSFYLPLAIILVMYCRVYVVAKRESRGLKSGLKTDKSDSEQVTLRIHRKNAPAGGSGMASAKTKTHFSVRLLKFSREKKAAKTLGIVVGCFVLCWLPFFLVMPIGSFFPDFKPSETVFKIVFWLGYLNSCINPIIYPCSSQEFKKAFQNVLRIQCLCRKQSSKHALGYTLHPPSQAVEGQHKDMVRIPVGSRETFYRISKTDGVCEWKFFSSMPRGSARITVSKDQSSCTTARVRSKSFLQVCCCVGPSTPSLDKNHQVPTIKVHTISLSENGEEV

[5] = tested on: parental CHO cell line without any transfected receptors; assay: Forskolin‐stimulated cAMP accumulation, parent CHO cells without transfected receptors; assay type: cell-based, Chinese hamster; conditions: CHO cells without transfected receptors; in presence of forskolin
human α1B‐adrenoceptor [6] = target: T1, human α1B‐adrenoceptor; assay: Intracellular free calcium mobilization, CHO‐α1B cells; assay type: cell-based; conditions: CHO‐α1B cells; for Intracellular calcium release % ionomycin: maximal response as % of 10 µM ionomycin response
[7] = target: T2, human α1D‐adrenoceptor (full length); assay: Intracellular free calcium mobilization, CHO‐α1D cells; assay type: cell-based; conditions: CHO‐α1D cells
human α1B‐adrenoceptor [8] = target: T1, human α1B‐adrenoceptor; assay: ^3H‐prazosin whole‐cell radioligand binding, CHO‐α1B cells; conditions: CHO‐α1B cells
human α1A‐adrenoceptor [9] = target: T3, human α1A‐adrenoceptor; assay: ERK1/2‐phosphorylation (Surefire Alphascreen), CHO‐α1A cells; assay type: cell-based; conditions: CHO‐α1A cells, ^a bi‐phasic: initial stimulatory part; for ERK1/2‐phosphorylation % PDBu: % of 10 µM PDBu
[10] = target: T2, human α1D‐adrenoceptor (full length); assay: ^3H‐cAMP accumulation in the presence of 10 μM forskolin, CHO‐α1D cells; assay type: cell-based; conditions: CHO‐α1D cells
human α1B‐adrenoceptor [11] = target: T1, human α1B‐adrenoceptor; assay: ERK1/2‐phosphorylation (Surefire Alphascreen), CHO‐α1B cells; assay type: cell-based; conditions: CHO‐α1B cells, for bi‐phasic responses the initial stimulatory part; for ERK1/2‐phosphorylation % PDBu: maximal response as % PDBu response
[12] = target: T2, human α1D‐adrenoceptor (full length); assay: ^3H‐prazosin whole‐cell radioligand binding, CHO‐α1D cells; conditions: CHO‐α1D cells
[13] = target: T2, human α1D‐adrenoceptor (full length); assay: ERK1/2‐phosphorylation (Surefire Alphascreen), CHO‐α1D cells; assay type: cell-based
human α1A‐adrenoceptor [14] = target: T3, human α1A‐adrenoceptor; assay: ^3H‐cAMP accumulation, CHO‐α1A cells; assay type: cell-based; conditions: CHO‐α1A cells
human α1B‐adrenoceptor [15] = target: T1, human α1B‐adrenoceptor; assay: ^3H‐cAMP accumulation, CHO‐α1B cells; assay type: cell-based; conditions: CHO‐α1B cells
human α1A‐adrenoceptor [16] = target: T3, human α1A‐adrenoceptor; assay: ^3H‐cAMP accumulation in the presence of 10 μM forskolin, CHO‐α1A cells; assay type: cell-based; conditions: CHO‐α1A cells; response at 100 μM ligand, no EC50 obtained
human α1A‐adrenoceptor [17] = target: T3, human α1A‐adrenoceptor; assay: ^3H‐prazosin whole‐cell radioligand binding, CHO‐α1A cells
[18] = in presence of forskolin, log values given negative

cAMP accumulation (in presence of forskolin) Log EC50 (human α1B‐adrenoceptor [2]): −6.16 ± 0.09
cAMP Log EC50 [3]: No response
Intracellular calcium release % ionomycin (human α1A‐adrenoceptor [4]): 61.0 ± 3.8%
Intracellular calcium release Log EC50 (human α1B‐adrenoceptor [6]; given as log EC50 (negative numbers)): −6.52 ± 0.08
Intracellular calcium release % ionomycin (human α1B‐adrenoceptor [6]): 35.7 ± 3.7%
Intracellular calcium release Log EC50 ([7]; log values given negative): −5.29 ± 0.12
Intracellular calcium release % ionomycin ([7]; maximal response as % of 10 µM ionomycin): 12.0 ± 3.6%
IC50 (log), ^3H‐prazosin binding (human α1B‐adrenoceptor [8]; log IC50 bound given where no KD could be determined): IC50 > −4
Log IC50 α1B, ^3H‐prazosin whole cell binding (human α1B‐adrenoceptor [8]; printed as IC50> log value): IC50 >−4
ERK1/2‐phosphorylation % PDBu (human α1A‐adrenoceptor [9]): 74.8 ± 4.5%
cAMP (in presence of forskolin) Log EC50 [10, 18]: No response
ERK1/2‐phosphorylation % PDBu (human α1B‐adrenoceptor [11]): 54.5 ± 7.9%
3H‐prazosin binding Log KD ([12]; whole‐cell binding (from Table 1), log values given negative): −3.92
Log KD α1D, ^3H‐prazosin whole cell binding ([12]; given as log KD (negative), mean ± SEM, 'early plateau' = specific binding not fully inhibited): −3.92 ± 0.11
ERK1/2‐phosphorylation % PDBu at 100 µM ([13]; CHO‐α1D cells, response at 100 µM ligand (no EC50 given)): 11.7 ± 2.9%
cAMP accumulation % forskolin (human α1A‐adrenoceptor [14]; % of 10 µM forskolin response): 142.7 ± 8.7%
cAMP accumulation Log EC50 (human α1B‐adrenoceptor [15]): −5.63 ± 0.18
cAMP accumulation % forskolin (human α1B‐adrenoceptor [15]; % forskolin maximum response): 5.3 ± 0.5%
SMILES: CS(=O)(=O)Nc1c(O)ccc2c1CCCC2C1=NCCN1 (centres unmarked) [A61603]
ERK1/2-phosphorylation % PDBu ([1]; CHO cells without transfected receptors, maximal response as % of PDBu (10μM) response, mean ± s.e.m.): No response
cAMP accumulation (in presence of forskolin) Log EC50 [5]: No response

cAMP accumulation (in presence of forskolin) Fold increase at 100 µM (human α1A‐adrenoceptor [16]): 1.89 ± 0.06 fold
cAMP Log EC50 [3]: No response
Log efficacy ratio KD /EC50 (human α1A‐adrenoceptor [4]; binding KD and calcium EC50): 2.66
EC50 (human α1A‐adrenoceptor [4]; given as log EC50 (negative), read-out: Intracellular calcium release Log EC50 (converted)): 0.794 µM
Intracellular calcium release % ionomycin (human α1A‐adrenoceptor [4]): 57.5 ± 2.1%
EC50 (human α1B‐adrenoceptor [6]; given as log EC50 (negative numbers), read-out: Intracellular calcium release Log EC50 (converted)): 1.23 µM
Log efficacy ratio KD /EC50 (human α1B‐adrenoceptor [6]; intrinsic efficacy ratio, KD from binding / EC50 calcium, log): >2.91
Intracellular calcium release % ionomycin (human α1B‐adrenoceptor [6]): 54.9 ± 2.9%
Log efficacy ratio KD /EC50 ([7]; intrinsic efficacy ratio, binding KD / calcium EC50): >2.20
EC50 ([7]; log values given negative, read-out: Intracellular calcium release Log EC50 (converted)): 6.31 µM
Kd (human α1A‐adrenoceptor [17]; Log KD α1A, ^3H‐prazosin whole cell binding, CHO‐α1A cells, given as log KD (negative), mean ± SEM): 363 µM
Affinity selectivity ratio α1A vs α1B (human α1A‐adrenoceptor [17]; higher affinity for α1A than α1B): >2.8 fold
Affinity selectivity ratio α1A vs α1D (human α1A‐adrenoceptor [17]; higher affinity for α1A than α1D): >2.8 fold
IC50 (human α1B‐adrenoceptor [8]; printed as IC50> log value): > 1000 µM
EC50 (human α1A‐adrenoceptor [9]; 2–4 min, ^b also active in parent CHO cells, read-out: ERK1/2‐phosphorylation Log EC50 (converted)): 4.17 µM
ERK1/2‐phosphorylation % PDBu (human α1A‐adrenoceptor [9]): 81.2 ± 6.8%
cAMP (in presence of forskolin) Fold increase ([10]; fold increase of the forskolin response): 1.17 ± 0.06
EC50 [10, 18]: 1.82 µM
EC50 (human α1B‐adrenoceptor [11]; read-out: ERK1/2‐phosphorylation Log EC50 (converted)): 7.76 µM
ERK1/2‐phosphorylation % PDBu (human α1B‐adrenoceptor [11]): 76.1 ± 6.8%
3H‐prazosin binding log IC50 (bound, printed in Log KD column) ([12]; whole‐cell binding, given as IC50 > log value): IC50 > −3
IC50 ([12]; printed as IC50> log value): > 1000 µM
ERK1/2‐phosphorylation % PDBu [13]: 14.5 ± 5.9%
EC50 ([13]; CHO‐α1D cells, log values given negative, read-out: ERK1/2‐phosphorylation Log EC50 (converted)): 18.6 µM
cAMP accumulation % forskolin at 100 µM (human α1A‐adrenoceptor [14]; response at 100 μM ligand, no EC50 obtained): 18.0 ± 1.5%
SMILES: NCC(O)c1ccc(O)cc1 (centres unmarked) [Octopamine]
Emax at 100 µM ([1]; Cricetulus griseus, CHO, read-out: ERK1/2-phosphorylation % PDBu at 100μM): 2.9 ± 1.8%
cAMP accumulation (in presence of forskolin) Log EC50 [5]: No response
